For one test, the system named is E. coli transformants. The test is described as follows: Fragment exchange: transformants selected for PPT resistance. The class given is cell-based. The text has this: (§1) Tables I and II show the results obtained.
The target in test [1] is T1, PPT resistant mutant GS (lys 332) (pCGS3-LYS332) (Medicago sativa, UniProt P04078, R332K).
T1 construct: made in house; host or cells: E. coli FDB213 (glnA deletion), clarified lysate
The test is described as follows: biochemical. On the set-up: species or system alfalfa. Particulars: read-out: Relative GS Enzyme Activity. How it is done: (§2) The cells were collected by centrifugation at 5,000 r.p.m. (5° C.) for 5 min, resuspended in 1.0 ml 10mM Tris-HCl, pH 7.5, 1 mM EDTA, 5 mM beta-mercaptoethanol, and lysed by sonication.

For a further test, the target named is T2, wild-type GS (pCGS3) (Medicago sativa, UniProt P04078).
T2 construct: made in house; host or cells: E. coli FDB213 (glnA deletion), clarified lysate
T2 sequence (P04078 1-356): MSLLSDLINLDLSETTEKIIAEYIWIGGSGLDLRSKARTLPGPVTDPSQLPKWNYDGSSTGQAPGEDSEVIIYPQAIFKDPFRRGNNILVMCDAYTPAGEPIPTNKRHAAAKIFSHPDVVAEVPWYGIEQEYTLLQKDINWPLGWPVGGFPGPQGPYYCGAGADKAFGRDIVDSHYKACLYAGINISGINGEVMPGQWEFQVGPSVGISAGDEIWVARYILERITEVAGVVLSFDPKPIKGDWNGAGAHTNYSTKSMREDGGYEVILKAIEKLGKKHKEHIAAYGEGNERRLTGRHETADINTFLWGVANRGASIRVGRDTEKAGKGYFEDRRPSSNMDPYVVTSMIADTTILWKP
Put plainly: Inhibition of GS activity by PPT, lysate of E. coli FDB213 containing pCGS3. The class given is biochemical, alfalfa. Particulars: read-out: Relative GS Enzyme Activity. How it is done: as §2

A further test has as its system E. coli containing pCGS3. The test is described as follows: Replating on M9 with PPT, plasmid pCGS3. The class given is cell-based.
Description: as §1

Test [2] addresses T3, PPT resistant mutant GS (ser 245) (pCGS3-SER245) (Medicago sativa, UniProt P04078, G245S).
T3 construct: made in house; host or cells: E. coli FDB213 (glnA deletion), clarified lysate
The test is described as follows: Inhibition of GS activity by PPT, lysate of E. coli FDB213 containing pCGS3-Ser245. The class given is biochemical, alfalfa. The conditions noted are these: read-out: Relative GS Enzyme Activity. On the procedure: as §2

Test [3] concerns the target T4, pea leaf glutamine synthetase (Pisum sativum, UniProt P08281).
T4 sequence (P08281 50-430): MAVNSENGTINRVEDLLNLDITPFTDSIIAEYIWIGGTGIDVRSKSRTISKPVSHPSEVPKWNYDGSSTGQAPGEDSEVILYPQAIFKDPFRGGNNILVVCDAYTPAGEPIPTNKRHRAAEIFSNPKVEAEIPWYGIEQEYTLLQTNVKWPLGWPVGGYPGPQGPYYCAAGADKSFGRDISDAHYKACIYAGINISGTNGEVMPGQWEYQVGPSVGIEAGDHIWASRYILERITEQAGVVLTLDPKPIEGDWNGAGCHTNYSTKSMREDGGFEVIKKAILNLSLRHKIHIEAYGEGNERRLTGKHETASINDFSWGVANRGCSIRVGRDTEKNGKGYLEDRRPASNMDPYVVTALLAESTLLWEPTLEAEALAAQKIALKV
The conditions noted are these: mixed competitive inhibitor; cited from earlier work.

pKi: −log10 of the molar value.

The values below come from patent US4975374A (priority 1987, dated 1990).

T3 sequence (P04078 whole entry G245S): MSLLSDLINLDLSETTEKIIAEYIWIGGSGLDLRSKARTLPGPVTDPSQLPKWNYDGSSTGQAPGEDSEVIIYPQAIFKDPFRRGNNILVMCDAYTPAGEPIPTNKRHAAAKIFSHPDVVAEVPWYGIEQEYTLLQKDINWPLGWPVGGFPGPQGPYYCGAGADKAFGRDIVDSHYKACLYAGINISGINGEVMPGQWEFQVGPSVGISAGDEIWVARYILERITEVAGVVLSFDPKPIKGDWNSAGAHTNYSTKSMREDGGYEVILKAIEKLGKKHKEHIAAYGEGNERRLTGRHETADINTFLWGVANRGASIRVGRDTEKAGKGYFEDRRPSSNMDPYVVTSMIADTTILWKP
T1 sequence (P04078 whole entry R332K): as the sequence (P04078 whole entry G245S) above, with S245G, R332K counted along it

Take `CP(=O)(O)CC[C@H](N)C(=O)O` [L-PPT, L-phosphinothricin]: the “NUMBER OF COLONIES M9 AMP + 3 mM L-PPT” value with E. coli transformants (9: CCC pCGS3) was 100; with E. coli transformants (10: CCC pCGS3 PPT^r) it was above 1000; with E. coli transformants (ligation 2: insert PPT^r SalI-NcoI, vector SalI-NcoI), 8; in the test on E. coli transformants (ligation 4: insert PPT^r NcoI-EcoRI, vector NcoI-EcoRI), 6; in the test with E. coli transformants (ligation 6: insert PPT^r EcoRI-HindIII, vector EcoRI-HindIII), 300; in the test on E. coli transformants (ligation 8: insert PPT^r HindIII-BamHI, vector HindIII-BamHI) it was 2.

Take `CP(=O)(O)CC[C@H](N)C(=O)O` [PPT, phosphinothricin]: the values for the remaining activity at 4 µM (in test [1]; at wild-type GS (pCGS3) (4 uM PPT); in test [2]) were 103%, 102% and 103%, respectively. For the same compound, the remaining activity at 25 µM was determined as 103% in test [1], 95.7% at wild-type GS (pCGS3) (25 uM PPT) and 103% in test [2]. Further, the remaining activity at 62.5 µM in test [1] amounted to 103%; at wild-type GS (pCGS3) (62.5 uM PPT), 84%; in test [2] it was 97.3%. The remaining activity at 125 µM in test [1] stood at 100%; on wild-type GS (pCGS3) (125 uM PPT) it was 68%; in test [2] it was 91.4%. Besides, the remaining activity at 250 µM in test [1] was found to be 98.5%; at wild-type GS (pCGS3) (250 uM PPT), 42.7%; in test [2], 80.6%. Also, the remaining activity at 2000 µM came out at 78.2% in test [1], 15% at wild-type GS (pCGS3) (2 mM PPT) and 30.7% in test [2]. Moreover, the remaining activity at 20000 µM is 23.8% in test [1], 4.3% at wild-type GS (pCGS3) (20 mM PPT) and 5.3% in test [2]. Also, the growth on replating was 0 with E. coli containing pCGS3 (M9/6 mM PPT, from LB); 0 in the test on E. coli containing pCGS3 (M9/6 mM PPT, from M9); 0 in the test on E. coli containing pCGS3 (M9/12 mM PPT, from LB); 0 in the test with E. coli containing pCGS3 (M9/12 mM PPT, from M9).

As to `CS(=N)(=O)CCC(N)C(=O)O` (centres unmarked) [MSO, methione sulfoximine], the pKi in test [3] is 3.80.
